Assay results as given in US6949383B2 (priority 1998, dated 2005).

Legend:
Assay type in all cases: cell-based, Escherichia coli
dnaQ = tested on: dnaQ
Wild-Type = tested on: Wild-Type
[1] = tested on: Super-Oflo.-resisting dnaQ; test: Minimum growth inhibiting concentration (MIC) of antibiotic substances
dnaQ49 strain = test: Drug resistance reached by repeated mutagenesis and selection (Example 2)

CC1COc2c(N3CCN(C)CC3)c(F)cc3c(=O)c(C(=O)O)cn1c23 (centres unmarked) [Ofloxacin]
Minimum growth inhibiting concentration (MIC) (dnaQ): 0.0156 | Minimum growth inhibiting concentration (MIC) (Wild-Type): 0.0625 | Minimum growth inhibiting concentration (MIC) [1]: 1024 | Concentration of Ofloxacin (dnaQ49 strain; mutagenesis treatment for 1 time): 0.001 µg/mL | Concentration of Ofloxacin (dnaQ49 strain; mutagenesis treatments for 2 times): 0.01 µg/mL | Concentration of Ofloxacin (dnaQ49 strain; mutagenesis treatments for 3 times): 0.1 µg/mL | Concentration of Ofloxacin (dnaQ49 strain; mutagenesis treatments for 4 times): 1 µg/mL | Concentration of Ofloxacin (dnaQ49 strain; mutagenesis treatments for 5 times): 10 µg/mL | Concentration of Ofloxacin (dnaQ49 strain; mutagenesis treatments for 6 times): 30 µg/mL | Concentration of Ofloxacin (dnaQ49 strain; mutagenesis treatments for 7 times): 50 µg/mL | Concentration of Ofloxacin (dnaQ49 strain; mutagenesis treatments for 8 times): 60 µg/mL | Concentration of Ofloxacin (dnaQ49 strain; mutagenesis treatments for 9 times): 70 µg/mL | Concentration of Ofloxacin (dnaQ49 strain; mutagenesis treatments for 10 times): 80 µg/mL | Concentration of Ofloxacin (dnaQ49 strain; mutagenesis treatments for 11 times): 90 µg/mL | Concentration of Ofloxacin (dnaQ49 strain; mutagenesis treatments for 12 times): 100 µg/mL | Concentration of Ofloxacin (dnaQ49 strain; mutagenesis treatments for 13 times): 120 µg/mL | Concentration of Ofloxacin (dnaQ49 strain; mutagenesis treatments for 14 times): 132 µg/mL | Concentration of Ofloxacin (dnaQ49 strain; mutagenesis treatments for 15 times): 144 µg/mL | Concentration of Ofloxacin (dnaQ49 strain; mutagenesis treatments for 16 times): 150 µg/mL | Concentration of Ofloxacin (dnaQ49 strain; mutagenesis treatments for 17 times): 156 µg/mL | Concentration of Ofloxacin (dnaQ49 strain; mutagenesis treatments for 18 times): 168 µg/mL | Concentration of Ofloxacin (dnaQ49 strain; mutagenesis treatments for 19 times): 180 µg/mL | Concentration of Ofloxacin (dnaQ49 strain; mutagenesis treatments for 20 times): 210 µg/mL | Concentration of Ofloxacin (dnaQ49 strain; mutagenesis treatments for 21 times): 240 µg/mL | Concentration of Ofloxacin (dnaQ49 strain; mutagenesis treatments for 22 times): 270 µg/mL | Concentration of Ofloxacin (dnaQ49 strain; mutagenesis treatments for 23 times): 300 µg/mL | Concentration of Ofloxacin (dnaQ49 strain; mutagenesis treatments for 24 times): 320 µg/mL | Concentration of Ofloxacin (dnaQ49 strain; mutagenesis treatments for 25 times): 330 µg/mL | Concentration of Ofloxacin (dnaQ49 strain; mutagenesis treatments for 26 times): 340 µg/mL | Concentration of Ofloxacin (dnaQ49 strain; mutagenesis treatments for 27 times): 350 µg/mL | Concentration of Ofloxacin (dnaQ49 strain; mutagenesis treatments for 28 times): 360 µg/mL | Concentration of Ofloxacin (dnaQ49 strain; mutagenesis treatments for 29 times): 370 µg/mL | Concentration of Ofloxacin (dnaQ49 strain; mutagenesis treatments for 30 times): 380 µg/mL | Concentration of Ofloxacin (dnaQ49 strain; mutagenesis treatments for 31 times): 400 µg/mL | Concentration of Ofloxacin (dnaQ49 strain; mutagenesis treatments for 32 times): 425 µg/mL | Concentration of Ofloxacin (dnaQ49 strain; mutagenesis treatments for 33 times): 450 µg/mL | Concentration of Ofloxacin (dnaQ49 strain; mutagenesis treatments for 34 times): 475 µg/mL | Concentration of Ofloxacin (dnaQ49 strain; mutagenesis treatments for 35 times): 500 µg/mL
